Results from US20100311714A1, “1H-IMIDAZO[4,5-c]QUINOLINONE COMPOUNDS” (priority 2009, published 2010).
Values after ≈ are worked out from the molar mass of the structure shown.

Legend:
[1] = test system: PKB Ser473 phosphorylation in Rat1-myr-HA-p110 beta cells; assay: Reverse protein array, PKB Ser473 phosphorylation in Rat1-myr-HA-p110 beta cells; format: cell-based; conditions: Rattus norvegicus, 0.5 h, 30 minutes compound incubation, read-out: p-PKB/IC50_beta
[2] = test system: PKB Ser473 phosphorylation in Rat1-myr-HA-p110 alpha cells; assay: Reverse protein array, PKB Ser473 phosphorylation in Rat1-myr-HA-p110 alpha cells; format: cell-based; conditions: Rattus norvegicus, 0.5 h, 30 minutes compound incubation, read-out: p-PKB/IC50_alpha
[3] = Parallel Artificial Membrane Permeability Assay (PAMPA) at pH 6.8; format: physicochemical
How it was run: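 Reported as log Pe, membrane permeability was determined by parallel artificial membrane assay at pH 6.8 per Wohnsland–Faller.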

[4] = High-throughput equilibrium solubility at pH 6.8; format: physicochemical; conditions: pH 6.8, aqueous buffer, thermodynamic from solid; read-out: HT-Eq Sol/pH 6.8
How it was run: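 Following the procedure of Zhou et al. (2007), compound solubility was determined at pH 6.8.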

SMILES	IC50 [1] [nM]	IC50 [2] [nM]	HT-perm/logPe pH6.8 [3]	solubility thermodynamic [4] [µg/mL]	HT-Perm logPe pH6.8 [3]
CCOc1ncc(-c2ccc3ncc4c(c3c2)n(-c2cccnc2C)c(=O)n4C)cn1 [Example 2.5, 8-(2-Ethoxy-pyrimidin-5-yl)-3-methyl-1-(2-methyl-pyridin-3-yl)-1,3-dihydro-imidazo[4,5-c]quinolin-2-one]	53.8	49	−4.0	48 (≈ 116 µM)	–
COc1ncc(-c2ccc3ncc4c(c3c2)n(-c2ccc(N3CC[C@H](O)C3)nc2C)c(=O)n4C)c(OC)n1 [Example 32.3, 8-(2,4-Dimethoxy-pyrimidin-5-yl)-1-[6-((S)-3-hydroxy-pyrrolidin-1-yl)-2-methyl-pyridin-3-yl]-3-methyl-1,3-dihydro-imidazo[4,5-c]quinolin-2-one]	80	45	–	30 (≈ 58.4 µM)	−5.3
CCOc1cc(-c2ccc3ncc4c(c3c2)n(-c2ccc(N3CCC3)nc2C)c(=O)n4C)cnc1COC [Example 23.5, 1-(6-Azetidin-1-yl-2-methyl-pyridin-3-yl)-8-(5-ethoxy-6-methoxymethyl-pyridin-3-yl)-3-methyl-1,3-dihydro-imidazo[4,5-c]quinolin-2-one]	98.6	37.3	–	69 (≈ 135 µM)	−3.8
COc1ccc(-c2ccc3ncc4c(c3c2)n(-c2cnccc2C)c(=O)n4C)cn1 [Example 4.3, 8-(6-Methoxy-pyridin-3-yl)-3-methyl-1-(4-methyl-pyridin-3-yl)-1,3-dihydro-imidazo[4,5-c]quinolin-2-one]	363	203	−3.7	129 (≈ 325 µM)	–
CCOc1ccc(-c2ccc3ncc4c(c3c2)n(-c2cccnc2F)c(=O)n4C)cn1 [Example 6.1, 8-(6-Ethoxy-pyridin-3-yl)-1-(2-fluoro-pyridin-3-yl)-3-methyl-1,3-dihydro-imidazo[4,5-c]quinolin-2-one]	56.2	31.5	−3.9	2 (≈ 4.81 µM)	–
COc1cc(-c2ccc3ncc4c(c3c2)n(-c2cccnc2C)c(=O)n4C)cnc1C(OC)OC [Example 2.27, 8-(6-Dimethoxymethyl-5-methoxy-pyridin-3-yl)-3-methyl-1-(2-methyl-pyridin-3-yl)-1,3-dihydro-imidazo[4,5-c]quinolin-2-one]	247	100	–	> 472	−5.3
CCOc1ccc(-c2ccc3ncc4c(c3c2)n(-c2cnccc2C)c(=O)n4C)cn1 [Example 4.2, 8-(6-Ethoxy-pyridin-3-yl)-3-methyl-1-(4-methyl-pyridin-3-yl)-1,3-dihydro-imidazo[4,5-c]quinolin-2-one]	149	47.3	−3.5	50 (≈ 122 µM)	–
Cc1ncccc1-n1c(=O)n(C)c2cnc3ccc(-c4cnc(N(C)C)nc4)cc3c21 [Example 2.15, 8-(2-Dimethylamino-pyrimidin-5-yl)-3-methyl-1-(2-methyl-pyridin-3-yl)-1,3-dihydro-imidazo[4,5-c]quinolin-2-one]	101	72.4	−3.7	11 (≈ 26.7 µM)	–
CN(C)c1ccc(-c2ccc3ncc4c(c3c2)n(-c2cccnc2)c(=O)n4C)cn1 [Example 5.3, 8-(6-Dimethylamino-pyridin-3-yl)-3-methyl-1-pyridin-3-yl-1,3-dihydro-imidazo[4,5-c]quinolin-2-one]	185	92.2	−3.9	4 (≈ 10.1 µM)	–
COCc1ncc(-c2ccc3ncc4c(c3c2)n(-c2ccc(N3CCC3)nc2C)c(=O)n4C)cc1OC(C)C [Example 23.2, 1-(6-Azetidin-1-yl-2-methyl-pyridin-3-yl)-8-(5-isopropoxy-6-methoxymethyl-pyridin-3-yl)-3-methyl-1,3-dihydro-imidazo[4,5-c]quinolin-2-one]	53.4	24.8	–	264 (≈ 503 µM)	−3.7
CCOc1cc(-c2ccc3ncc4c(c3c2)n(-c2ccc(OCCOC)nc2C)c(=O)n4C)cnc1COC [Example 22.1, 8-(5-Ethoxy-6-methoxymethyl-pyridin-3-yl)-1-[6-(2-methoxy-ethoxy)-2-methyl-pyridin-3-yl]-3-methyl-1,3-dihydro-imidazo[4,5-c]quinolin-2-one]	66.7	17.7	–	7 (≈ 13.2 µM)	−3.8
CCOc1cc(-c2ccc3ncc4c(c3c2)n(-c2ccc(F)nc2C)c(=O)n4C)cnc1COC [Example 7.5, 8-(5-Ethoxy-6-methoxymethyl-pyridin-3-yl)-1-(6-fluoro-2-methyl-pyridin-3-yl)-3-methyl-1,3-dihydro-imidazo[4,5-c]quinolin-2-one]	82.1	31.5	–	94 (≈ 199 µM)	−3.7
CCOc1ccc(-c2ccc3ncc4c(c3c2)n(-c2ccc(F)nc2C)c(=O)n4C)cn1 [Example 7.3, 8-(6-Ethoxy-pyridin-3-yl)-1-(6-fluoro-2-methyl-pyridin-3-yl)-3-methyl-1,3-dihydro-imidazo[4,5-c]quinolin-2-one]	43.8	42.2	−3.7	2 (≈ 4.66 µM)	–

The next compounds have a lower IC50 [1] than those just listed; values first:

IC50 [1] [nM]	IC50 [2] [nM]	HT-perm/logPe pH6.8 [3]	solubility thermodynamic [4] [µg/mL]	HT-Perm logPe pH6.8 [3]	SMILES
10.2	4.57	−3.8	6 (≈ 13.2 µM)	–	Cn1c(=O)n(-c2cccnc2F)c2c3cc(-c4cnc(N)c(C(F)(F)F)c4)ccc3ncc21 [Example 6.2, 8-(6-Amino-5-trifluoromethyl-pyridin-3-yl)-1-(2-fluoro-pyridin-3-yl)-3-methyl-1,3-dihydro-imidazo[4,5-c]quinolin-2-one]
18.7	11.5	−4.7	56 (≈ 141 µM)	–	CNc1ccc(-c2ccc3ncc4c(c3c2)n(-c2cccnc2C)c(=O)n4C)cn1 [Example 2.13, 3-Methyl-8-(6-methylamino-pyridin-3-yl)-1-(2-methyl-pyridin-3-yl)-1,3-dihydro-imidazo[4,5-c]quinolin-2-one]
11.3	11.3	–	67 (≈ 139 µM)	−5.1	CNc1ncc(-c2ccc3ncc4c(c3c2)n(-c2ccc(N3CCC(O)C3)nc2C)c(=O)n4C)cn1 (centres unmarked) [Example 27.2, 1-[6-(3-Hydroxy-pyrrolidin-1-yl)-2-methyl-pyridin-3-yl]-3-methyl-8-(2-methylamino-pyrimidin-5-yl)-1,3-dihydro-imidazo[4,5-c]quinolin-2-one]
5.7	< 4.57	–	27 (≈ 61.3 µM)	−5.8	CCNc1cc(-c2ccc3ncc4c(c3c2)n(-c2cccnc2C)c(=O)n4C)cnc1CO [Example 2.31, 8-(5-Ethylamino-6-hydroxymethyl-pyridin-3-yl)-3-methyl-1-(2-methyl-pyridin-3-yl)-1,3-dihydro-imidazo[4,5-c]quinolin-2-one]
11	10	–	49 (≈ 89.2 µM)	−4.5	CNc1ncc(-c2ccc3ncc4c(c3c2)n(-c2ccc(N3CC[C@H](O)C3)nc2C)c(=O)n4C)cc1C(F)(F)F [Example 32.5, 1-[6-((S)-3-Hydroxy-pyrrolidin-1-yl)-2-methyl-pyridin-3-yl]-3-methyl-8-(6-methylamino-5-trifluoromethyl-pyridin-3-yl)-1,3-dihydro-imidazo[4,5-c]quinolin-2-one]
30.6	13.9	–	99 (≈ 200 µM)	−4.5	Cc1nc(N2CCCC2)ccc1-n1c(=O)n(C)c2cnc3ccc(-c4cncc(C(C)(C)O)c4)cc3c21 [Example 25.3, 8-[5-(1-Hydroxy-1-methyl-ethyl)-pyridin-3-yl]-3-methyl-1-(2-methyl-6-pyrrolidin-1-yl-pyridin-3-yl)-1,3-dihydro-imidazo[4,5-c]quinolin-2-one]
6	< 4.57	–	127 (≈ 309 µM)	−4.8	CNc1cc(-c2ccc3ncc4c(c3c2)n(-c2cccnc2C)c(=O)n4C)cnc1C [Example 2.32, 3-Methyl-8-(6-methyl-5-methylamino-pyridin-3-yl)-1-(2-methyl-pyridin-3-yl)-1,3-dihydro-imidazo[4,5-c]quinolin-2-one]
36.7	22.7	–	427 (≈ 814 µM)	−5.1	COC1CCN(c2ccc(-n3c(=O)n(C)c4cnc5ccc(-c6cncc(C(C)(C)O)c6)cc5c43)c(C)n2)C1 (centres unmarked) [Example 28.1, 8-[5-(1-Hydroxy-1-methyl-ethyl)-pyridin-3-yl]-1-[6-(3-methoxy-pyrrolidin-1-yl)-2-methyl-pyridin-3-yl]-3-methyl-1,3-dihydro-imidazo[4,5-c]quinolin-2-one]
15.2	8.1	–	7 (≈ 14 µM)	−4.8	CNc1ncc(-c2ccc3ncc4c(c3c2)n(-c2ccc(N3CC[C@H](O)C3)nc2C)c(=O)n4C)cc1F [Example 32.2, 8-(5-Fluoro-6-methylamino-pyridin-3-yl)-1-[6-((S)-3-hydroxy-pyrrolidin-1-yl)-2-methyl-pyridin-3-yl]-3-methyl-1,3-dihydro-imidazo[4,5-c]quinolin-2-one]
< 4.57	< 4.57	–	4 (≈ 7.64 µM)	−4.2	Cc1nc(N(C)CCO)ccc1-n1c(=O)n(C)c2cnc3ccc(-c4cnc(N)c(C(F)(F)F)c4)cc3c21 [Example 26.1, 8-(6-Amino-5-trifluoromethyl-pyridin-3-yl)-1-{6-[(2-hydroxy-ethyl)-methyl-amino]-2-methyl-pyridin-3-yl}-3-methyl-1,3-dihydro-imidazo[4,5-c]quinolin-2-one]
